# Results published in PubChem BioAssay AID1996.
# Conditions: buffer; pH 7.4; 200.0 µM
row,Structure (SMILES),solubility kinetic [µg/mL]
1,COc1ccc(Nc2ncnc3ccc(C)cc23)cc1,> 39.8
2,C#CCN1C(=O)S/C(=C\c2ccc(-c3ccc(C(=O)O)cc3C)o2)C1=O,35
3,CCN(C(=O)/C=C/c1ccc(OC)cc1)C1CCCCC1,38.3
4,COc1ccc(NC(=O)Nc2cnccn2)c(OC)c1,3.4
5,O=C(Nc1nc2cc3c(cc2s1)OCCO3)c1ccco1,4.8
6,CCOc1ccc(C(=O)OC(C)CN2CCN(C)CC2)cc1.Cl (stereo unspecified),> 51.4
7,COc1ccc(CCNC(=O)COC(=O)Cc2ccccc2F)cc1,> 51.8
8,Cn1c(-c2ccncc2)nc2ccccc21,> 31.4
9,CC(NC(=O)/C=C/c1ccccc1[N+](=O)[O-])C1CC2CCC1C2 (stereo unspecified),1.2
10,CN(c1ccccc1)c1nccc(=O)[nH]1,> 30.2
11,C#CCOC(=O)C[N+](C)(C)CC=C.[Cl-],> 32.7
12,CC(C)c1ccc(NC(=O)Cc2c(C(=O)O)n(C)c3ccccc23)cc1,> 52.6
13,COc1ccc(S(=O)(=O)Nc2ccc3c(c2)n(C)c(=O)n3C)cc1C,> 54.2
14,O=S(=O)(Nc1ccccn1)c1cc(Cl)ccc1Cl,9.2
15,Cc1nc2ccc(NC(=O)c3ccc([N+](=O)[O-])cc3)cc2[nH]1,30.6
16,COc1ccc(CCCC(=O)NCCc2ccccc2)cc1,35.2
17,NS(=O)(=O)c1cccc(NC(=O)COC(=O)CC2Sc3ccccc3NC2=O)c1 (stereo unspecified),32.5
18,COC(=O)c1nn(-c2cccc(Cl)c2)cc(OC)c1=O,> 44.2
19,CSc1ccc(CN(C)CC(=O)NCCc2ccccc2)cc1,> 49.3
20,O=C(Nc1nccs1)C(Cl)(Cl)Cl,> 36.8
21,COc1cccc(-c2cc(C(=O)NCc3cccs3)no2)c1,< 0.3

row,Structure (SMILES),solubility kinetic [µg/mL]
1,O=C1C2C3C=CC(CC3)C2C(=O)N1c1cccc(Br)c1 (stereo unspecified),2
2,CC(NC(=O)c1cccc(Cl)c1)C1CC2CCC1C2 (stereo unspecified),< 0.6
3,O=CNCc1nc2ccccc2n1CCc1ccccc1,> 41.9
4,O=C(CCc1ccccc1)Nc1ccc(S(=O)(=O)NC2=NCCCCC2)cc1,56.6
5,COc1ccc(N2C(=O)C3C(C2=O)C3(c2ccccc2)c2ccccc2)cc1 (stereo unspecified),0.9
6,COc1ccc(OCC(=O)Nc2ccc3oc(=O)ccc3c2)cc1,3.3
7,CCCc1cc(=O)[nH]c(SCC(=O)c2cc(C)n(CC3CCCO3)c2C)n1 (stereo unspecified),> 58.4
8,N#CCOC(=O)[C@H](Cc1ccccc1)N1C(=O)c2ccccc2C1=O,47.3
9,COc1ccc(NC(=S)Nc2cnc3ccccc3c2)c(OC)c1,45.1
10,Cc1noc(C)c1C(=O)Nc1nccs1,> 33.5
11,O=C(CO/N=C/c1ccc(OC(F)F)cc1)NC1CCCC1,> 46.8
12,COc1cc(C)ccc1OCC(=O)OCC(=O)c1[nH]c(C)c(C(C)=O)c1C,13.5
13,Cc1cc(Cl)ccc1Oc1ncnc2onc(C)c12,1.9
14,O=C(c1ccc2[nH]c(=O)c(=O)[nH]c2c1)N1CCc2ccccc2C1,> 48.2
15,COc1ccc(CCNC(=O)Cc2ccc(Cl)cc2)cc1OC,> 50.1
16,COc1ccc(-c2onc3ccc(C(=O)/C=C/N(C)C)cc23)cc1,9.3
17,O=C(NCc1ccc2c(c1)OCO2)c1sccc1Br,48.4
18,CCCCc1ccc(NC(=S)N2CCN(C(=O)OCC)CC2)cc1,2.2
19,O=C(NCCc1ccc(O)c(O)c1)C1COc2ccccc2O1 (stereo unspecified),> 47.3
20,O=C(Cc1ccc([N+](=O)[O-])cc1)Nc1ccon1,18.3
21,CN(c1ccc(C(=O)N2CCOCC2)cc1)S(=O)(=O)c1cccs1,46.9

row,Structure (SMILES),solubility kinetic [µg/mL]
1,COc1ccc(S(=O)(=O)N(C)CC(=O)N2CCCCCC2)cc1,> 51.1
2,COc1ccc(CNC2CCCc3ccccc32)c(OC)c1 (stereo unspecified),31.4
3,NS(=O)(=O)c1ccc(CCNC(=O)CCc2ccccc2)cc1,46.4
4,C=CCC1Cc2c(Br)cccc2C(CC=C)N1 (stereo unspecified),13.3
5,CC1CCCC(NC(=O)COC(=O)c2ccccc2[N+](=O)[O-])C1C (stereo unspecified),48.6
6,CC(=O)c1ccc(N2CCN(C(=O)CCc3ccccc3)CC2)cc1,> 50.5
7,O=C(O)C1CCC1C(=O)Nc1nc(-c2ccc(Cl)s2)cs1 (stereo unspecified),> 51.4
8,O=C(NCc1cccnc1)c1nn2cccnc2c1Cl,> 43.2
9,CCOc1cc(N2CCOCC2)c(OCC)cc1NC(=O)CSc1nnc(N)s1,> 65.9
10,O=C(NCCc1ccccc1)c1ccccc1[N+](=O)[O-],33.6
11,OCCN1CCN(C(=S)Nc2ccc(SC(F)F)cc2)CC1,> 52.1
12,CNC(=S)N1CCN(c2nc3ccccc3s2)CC1,4
13,CNC(=O)C12CC3CC(C1)CC(c1ccc(C)cc1)(C3)C2,31.8
14,CC1(C)CC(=O)C=C(Nc2ccccc2)C1,> 32.3
15,Cc1ccc(N2C(S)=C(C#N)C(=O)NC2c2ccco2)cc1 (stereo unspecified),> 46.7
16,CCCC(C)NC(=S)Nc1cc(C)cc(C)c1 (stereo unspecified),25.2
17,Cc1noc(C)c1COC(=O)c1cc(S(=O)(=O)N2CCOCC2)ccc1Cl,42.4
18,COc1cc(OC)nc(Oc2ccccc2/C=N/O)n1,> 41.3
19,CCc1nc(N)nc(N)c1-c1ccc(Cl)cc1,> 37.3
